Results as given in paper PMC3378808 (Biochimica et Biophysica Acta, 2012).

T1: TMD of integrin αIIb (Homo sapiens, UniProt P08514)
T1 sequence (P08514 994-1019 limits assumed): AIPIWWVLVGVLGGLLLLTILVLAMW

B1: TMD-5 peptide (GGPG-WQLLAFFLAFFLDLILLIIALYL-GPGG) derived from LMP-1 (peptide)
peptide: GGPGWQLLAFFLAFFLDLILLIIALYLGPGG

What was measured:
LMP-1 TMD-5 = LMP-1 TMD-5 (Epstein-Barr virus, UniProt P03230); type: cell-based
[1] = molecular target: coumarin labeled TMD-5 peptide (LMP-1) (Epstein-Barr virus, UniProt P03230); assay: Coumarin fluorescence dequenching assay; type: binding
[2] = system: full-length LMP-1-mediated NF-κB activity; assay: NF-κB luciferase reporter assay in EBV positive B 721 cells; type: cell-based; conditions: Homo sapiens, B721, 48 h, read-out: IC50 of NF-κB activation
[3] = system: NO production (NF-κB downstream signaling); assay: Nitric oxide; type: cell-based, human; conditions: 100 μM, EBV positive B 721 cells, 48 h
[4] = system: TMD of diacylglycerol kinase (DAGK); type: cell-based; conditions: ToxR assay, Figure 3c
TMD of integrin αIIb = molecular target: T1, TMD of integrin αIIb; assay: ToxR reporter assay of integrin αIIb TMD oligomerization; type: cell-based; conditions: Figure 3c
[5] = molecular target: 12 representative kinases (AKT1, CAMK1, DDR2, GSK-3α, MAPK1, MET, PAK1, PDGFRB, PIM1, PKC-γ, PLK4, SRC); assay: Kinase profiling; type: biochemical; conditions: 50 μM compound
CAMK1 = CAMK1 (Homo sapiens, UniProt Q14012); assay: Kinase profiling; type: biochemical; conditions: 50 μM compound
PDGFRB = PDGFRB (Homo sapiens, UniProt P09619); assay: Kinase profiling; type: biochemical; conditions: 50 μM compound
TMD-5 trimer = TMD-5 trimer (Epstein-Barr virus, UniProt P03230); assay: Bis-Tris SDS-PAGE of TMD-5 after NMR titration; type: binding; conditions: compound to TMD-5 ratio 4:1
TMD-5 peptide = TMD-5 peptide (Epstein-Barr virus, UniProt P03230); assay: NMR titration; type: binding; conditions: 500 MHz, POPC/DHPC bicelles, 37 °C
split luciferase = split luciferase (Photinus pyralis, UniProt P08659); assay: Split luciferase false-positive control; type: biochemical; conditions: false positive evaluation
[6] = system: B lymphoblastoid cell line 721; conditions: 100 μM, B 721 cells, 48 h, WST-1
Bis-Tris SDS-PAGE = molecular target: the molecule itself; assay: Bis-Tris SDS-PAGE

Chain of split luciferase (P08659 2-416 limits assumed): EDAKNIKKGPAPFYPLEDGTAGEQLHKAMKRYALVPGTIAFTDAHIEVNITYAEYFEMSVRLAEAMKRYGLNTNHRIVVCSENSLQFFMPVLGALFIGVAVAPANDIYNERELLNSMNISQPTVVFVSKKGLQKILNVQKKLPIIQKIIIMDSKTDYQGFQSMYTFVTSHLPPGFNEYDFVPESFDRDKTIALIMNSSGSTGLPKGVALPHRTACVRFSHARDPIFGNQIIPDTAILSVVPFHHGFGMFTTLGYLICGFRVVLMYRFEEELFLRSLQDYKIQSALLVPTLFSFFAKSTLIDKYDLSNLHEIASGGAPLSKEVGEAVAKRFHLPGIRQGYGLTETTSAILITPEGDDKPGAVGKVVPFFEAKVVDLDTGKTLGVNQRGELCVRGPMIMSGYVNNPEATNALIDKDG
Chain of CAMK1 (Q14012 whole entry, species assumed): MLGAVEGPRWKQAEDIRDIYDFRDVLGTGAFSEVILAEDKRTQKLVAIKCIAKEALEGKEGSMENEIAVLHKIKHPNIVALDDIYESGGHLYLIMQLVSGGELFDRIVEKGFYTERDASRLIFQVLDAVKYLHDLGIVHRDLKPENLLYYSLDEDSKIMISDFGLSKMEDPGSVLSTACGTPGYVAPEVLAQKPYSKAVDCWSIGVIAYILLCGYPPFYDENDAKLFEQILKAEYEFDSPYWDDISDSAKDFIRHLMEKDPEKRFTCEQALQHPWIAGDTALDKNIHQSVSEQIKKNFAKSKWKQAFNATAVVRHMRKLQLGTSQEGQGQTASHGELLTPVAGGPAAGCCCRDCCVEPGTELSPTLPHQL
Chain of PDGFRB (P09619 33-1106, species assumed): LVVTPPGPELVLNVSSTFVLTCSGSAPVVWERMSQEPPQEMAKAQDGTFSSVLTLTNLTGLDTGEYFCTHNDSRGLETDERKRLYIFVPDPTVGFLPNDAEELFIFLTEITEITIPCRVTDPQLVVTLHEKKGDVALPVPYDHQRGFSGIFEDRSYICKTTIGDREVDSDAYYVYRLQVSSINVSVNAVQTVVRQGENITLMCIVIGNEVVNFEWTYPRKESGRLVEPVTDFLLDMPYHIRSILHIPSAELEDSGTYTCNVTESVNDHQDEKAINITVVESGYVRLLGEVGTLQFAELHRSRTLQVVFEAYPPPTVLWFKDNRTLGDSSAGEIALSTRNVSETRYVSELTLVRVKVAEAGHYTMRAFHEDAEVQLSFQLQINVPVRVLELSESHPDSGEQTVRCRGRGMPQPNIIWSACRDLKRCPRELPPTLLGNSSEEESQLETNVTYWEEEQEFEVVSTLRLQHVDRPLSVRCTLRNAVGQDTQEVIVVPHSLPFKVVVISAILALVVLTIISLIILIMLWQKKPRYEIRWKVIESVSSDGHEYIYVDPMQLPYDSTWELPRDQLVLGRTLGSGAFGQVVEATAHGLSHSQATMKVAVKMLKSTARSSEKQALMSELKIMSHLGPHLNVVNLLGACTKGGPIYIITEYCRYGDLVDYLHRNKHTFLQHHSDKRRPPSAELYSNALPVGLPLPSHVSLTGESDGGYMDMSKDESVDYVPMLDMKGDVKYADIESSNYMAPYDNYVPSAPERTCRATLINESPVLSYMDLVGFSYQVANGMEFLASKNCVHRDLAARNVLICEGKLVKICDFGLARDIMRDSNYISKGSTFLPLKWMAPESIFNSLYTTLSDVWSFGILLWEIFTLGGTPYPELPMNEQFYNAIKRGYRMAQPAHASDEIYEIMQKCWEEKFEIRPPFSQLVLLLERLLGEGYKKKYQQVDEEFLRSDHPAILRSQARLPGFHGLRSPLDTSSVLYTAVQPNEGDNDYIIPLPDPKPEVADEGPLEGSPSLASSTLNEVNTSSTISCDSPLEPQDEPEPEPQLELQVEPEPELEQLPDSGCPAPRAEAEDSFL

| Molecule | inhibition of TMD-5 oligomerization (ToxR assay), in words (LMP-1 TMD-5; Figure 3e/3f) | disruption of TMD-5 association (coumarin fluorescence dequenching), in words ([1]; 100 nM coumarin-labeled TMD-5, 150 μM C14 betaine, pH 7.4) | IC50 [2] [µM] | effect on NO over-production [3] | IC50 (LMP-1 TMD-5; read-out: IC50 to disrupt TMD-5 oligomerization in whole cells, ToxR assay, dose-dependent titration) [µM] | inhibition of DAGK TMD oligomerization [4] | inhibition of integrin αIIb TMD oligomerization (TMD of integrin αIIb) | coumarin labeled TMD-5 fluorescence increase without detergent ([1]; in the absence of C14 betaine detergent) | kinase activity retained (ten out of twelve kinases) [5] [%] | inhibition of CAMK1 (CAMK1) | inhibition of PDGFRB (PDGFRB) | disruption of TMD-5 trimer to monomer on SDS-PAGE (TMD-5 trimer) | chemical shift changes of TMD-5 on titration (TMD-5 peptide) | inhibition of luciferase control (split luciferase) | cytotoxicity / growth inhibition [6] | stoichiometry N (Bis-Tris SDS-PAGE) |
| --- | --- | --- | --- | --- | --- | --- | --- | --- | --- | --- | --- | --- | --- | --- | --- | --- |
| C(=Cc1ccc(-c2nc(-c3ccccc3)nc(-c3ccccc3)n2)cc1)c1ccc(-c2nc(-c3ccccc3)nc(-c3ccccc3)n2)cc1 [Compound 6, 2,2'-(1,2-ethenediyldi-4,1-phenylene)bis(4,6-diphenyl-1,3,5-triazine), reference compound] | did not inhibit TMD-5 oligomerization | did not inhibit TMD-5 oligomerization | 180 ± 27.5 | no significant inhibition activity | – | – | – | – | – | – | – | – | – | – | – | – |
| N=C(N)c1ccc(C=Cc2ccc(C(=N)N)cc2O)cc1.O=S(=O)(O)CCO.O=S(=O)(O)CCO [Compound 1] | – | – | – | suppress NO over-production | 90 ± 10.5 | did not inhibit DAGK TMD oligomerization | No apparent oligomerization inhibition | failed to cause coumarin labeled TMD-5 fluorescence increase | > 95 | approximately 20% | approximately 20% | disrupts the TMD-5 trimer | induced chemical shift changes at a number of sites including the deeply buried Asp 150 | did not inhibit luciferase control | No apparent growth inhibition | – |
| B1 | – | – | – | – | – | – | – | – | – | – | – | – | – | – | – | 3 |
